# In US6706663B2, “Herbicidal 3-heterocyclic substituted benzisothiazole and benzisoxazole compounds” (Wyeth, priority 2000, dated 2004):
# Columns and labels:
# [1] = system: ABUTH (Abutilon theophrasti); test: Postemergence herbicidal evaluation; type: in vivo, Medic.
# How it was run: (§1)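 Seedlings grown about two weeks in flats, sprayed, then kept under standard greenhouse care. Rated visually 4–5 weeks after treatment on a 0–9 scale (stand, vigour, malformation, size, chlorosis, overall appearance) relative to untreated control; repeat tests averaged.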
# [2] = system: AMBEL (Ambrosia artemisifolia); test: Postemergence herbicidal evaluation; type: in vivo, L.
# How it was run: as §1
# [3] = system: CASOB (Cassia obtusifolia); test: Postemergence herbicidal evaluation; type: in vivo, L.
# How it was run: as §1
# [4] = system: CHEAL (Chenopodium album); test: Postemergence herbicidal evaluation; type: in vivo, L.
# How it was run: as §1
# [5] = system: IPOHE (Ipomoea hederacea); test: Postemergence herbicidal evaluation; type: in vivo, (L.) Jacq.
# How it was run: as §1
# [6] = system: GLXMAW (Soybean, Williams); test: Postemergence herbicidal evaluation; type: in vivo, Glycine max, (L.) Merr. cv Williams
# How it was run: as §1
# [7] = system: ORYSAT (Rice, Tebonnet); test: Postemergence herbicidal evaluation; type: in vivo, Oryza sativa, (L.) Tebonnet
# How it was run: as §1
# [8] = system: ABUTH (Abutilon theophrasti); test: Preemergence herbicidal evaluation; type: in vivo, Medic.; conditions: preemergence, rated 4-5 weeks after treatment
# [9] = system: AMBEL (Ambrosia artemisifolia); test: Preemergence herbicidal evaluation; type: in vivo, L.; conditions: preemergence, rated 4-5 weeks after treatment
# How it was run: (§2)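 Visual 0–9 rating versus control (stand, vigor, malformation, size, chlorosis, overall appearance), scored four to five weeks post-treatment. Preemergence spray of aqueous acetone solution onto freshly seeded soil cups; plants grown under conventional greenhouse care.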
# [10] = system: CASOB (Cassia obtusifolia); test: Preemergence herbicidal evaluation; type: in vivo, L.; conditions: preemergence, rated 4-5 weeks after treatment
# How it was run: as §2
# [11] = system: CHEAL (Chenopodium album); test: Preemergence herbicidal evaluation; type: in vivo, L.; conditions: preemergence, rated 4-5 weeks after treatment
# How it was run: as §2
# [12] = system: IPOHE (Ipomoea hederacea); test: Preemergence herbicidal evaluation; type: in vivo, (L.) Jacq.; conditions: preemergence, rated 4-5 weeks after treatment
# [13] = system: ECHCG (Echinochloa crus-galli); test: Preemergence herbicidal evaluation; type: in vivo, (L.) Beau; conditions: preemergence, rated 4-5 weeks after treatment
# How it was run: as §2
# [14] = system: SETVI (Setaria viridis); test: Preemergence herbicidal evaluation; type: in vivo, (L.) Beau; conditions: preemergence, rated 4-5 weeks after treatment
# How it was run: as §2
# [15] = system: GLXMAW (Soybean, Williams); test: Preemergence herbicidal evaluation; type: in vivo, Glycine max, (L.) Merr. cv Williams; conditions: preemergence, rated 4-5 weeks after treatment
# [16] = system: TRZAWR (Wheat, Winter, cv Riband); test: Preemergence herbicidal evaluation; type: in vivo, Triticum aestivum; conditions: preemergence, rated 4-5 weeks after treatment
# How it was run: as §2
# [17] = system: ZEAMX (Corn, Field); test: Preemergence herbicidal evaluation; type: in vivo, Zea mays, L.; conditions: preemergence, rated 4-5 weeks after treatment
# [18] = system: CYPIR (Cyperus iria); test: Flooded paddy, preemergence weed control; type: in vivo; conditions: rated 3-4 weeks after treatment, 0-9 rating scale
# How it was run: (§3)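 Flooded silt loam pots, seeds in upper 0.5 cm, water held 1.5–3 cm deep; greenhouse; visual 0-9 score vs control.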
# [19] = system: MOOVA (Monochoria vaginalis); test: Flooded paddy, preemergence weed control; type: in vivo, Presl.; conditions: rated 3-4 weeks after treatment, 0-9 rating scale
# How it was run: as §3
smiles,measurement,setting,value
"Cc1ccn(-c2nsc3ccc(-n4c(=O)cc(C(F)(F)F)n(C)c4=O)cc23)n1 [Compound 38, 1-methyl-3-[3-(3-methylpyrazol-1-yl)-1,2-benzisothiazol-5-yl]-6-(trifluoromethl)uracil]","Postemergence herbicidal rating, ABUTH",[1]; rate 0.0320 kg/ha,9.0
same,"Postemergence herbicidal rating, ABUTH",[1]; rate 0.0620 kg/ha,9.0
same,"Postemergence herbicidal rating, AMBEL",[2]; rate 0.0320 kg/ha,0.0
same,"Postemergence herbicidal rating, AMBEL",[2]; rate 0.0620 kg/ha,0.0
same,"Postemergence herbicidal rating, CASOB",[3]; rate 0.0320 kg/ha,0.0
same,"Postemergence herbicidal rating, CASOB",[3]; rate 0.0620 kg/ha,1.0
same,"Postemergence herbicidal rating, CHEAL",[4]; rate 0.0320 kg/ha,0.0
same,"Postemergence herbicidal rating, CHEAL",[4]; rate 0.0620 kg/ha,3.0
same,"Postemergence herbicidal rating, IPOHE",[5]; rate 0.0320 kg/ha,7.0
same,"Postemergence herbicidal rating, IPOHE",[5]; rate 0.0620 kg/ha,9.0
same,"Postemergence herbicidal rating, GLXMAW",[6]; rate 0.0320 kg/ha,5.5
same,"Postemergence herbicidal rating, GLXMAW",[6]; rate 0.0620 kg/ha,7.0
same,"Postemergence herbicidal rating, ORYSAT",[7]; rate 0.0320 kg/ha,2.5
same,"Postemergence herbicidal rating, ORYSAT",[7]; rate 0.0620 kg/ha,3.5
same,ABUTH preemergence herbicidal rating,[8]; Rate 0.0620 kg/ha,4.0
same,ABUTH preemergence herbicidal rating,[8]; Rate 0.1250 kg/ha,4.0
same,ABUTH preemergence herbicidal rating,[8]; Rate 0.2500 kg/ha,6.0
same,AMBEL preemergence herbicidal rating,[9]; Rate 0.0620 kg/ha,0.0
same,AMBEL preemergence herbicidal rating,[9]; Rate 0.1250 kg/ha,3.0
same,AMBEL preemergence herbicidal rating,[9]; Rate 0.2500 kg/ha,7.0
same,CASOB preemergence herbicidal rating,[10]; Rate 0.0620 kg/ha,0.0
same,CASOB preemergence herbicidal rating,[10]; Rate 0.1250 kg/ha,0.0
same,CASOB preemergence herbicidal rating,[10]; Rate 0.2500 kg/ha,0.0
same,CHEAL preemergence herbicidal rating,[11]; Rate 0.0620 kg/ha,9.0
same,CHEAL preemergence herbicidal rating,[11]; Rate 0.1250 kg/ha,9.0
same,CHEAL preemergence herbicidal rating,[11]; Rate 0.2500 kg/ha,9.0
same,IPOHE preemergence herbicidal rating,[12]; Rate 0.0620 kg/ha,0.0
same,IPOHE preemergence herbicidal rating,[12]; Rate 0.1250 kg/ha,0.0
same,IPOHE preemergence herbicidal rating,[12]; Rate 0.2500 kg/ha,6.0
same,ECHCG preemergence herbicidal rating,[13]; Rate 0.0620 kg/ha,7.0
same,ECHCG preemergence herbicidal rating,[13]; Rate 0.1250 kg/ha,9.0
same,ECHCG preemergence herbicidal rating,[13]; Rate 0.2500 kg/ha,9.0
same,SETVI preemergence herbicidal rating,[14]; Rate 0.0620 kg/ha,5.0
same,SETVI preemergence herbicidal rating,[14]; Rate 0.1250 kg/ha,9.0
same,SETVI preemergence herbicidal rating,[14]; Rate 0.2500 kg/ha,9.0
same,GLXMAW preemergence herbicidal rating,[15]; Rate 0.0620 kg/ha,0.0
same,GLXMAW preemergence herbicidal rating,[15]; Rate 0.1250 kg/ha,4.0
same,GLXMAW preemergence herbicidal rating,[15]; Rate 0.2500 kg/ha,4.0
same,TRZAWR preemergence herbicidal rating,[16]; Rate 0.0620 kg/ha,3.0
same,TRZAWR preemergence herbicidal rating,[16]; Rate 0.1250 kg/ha,4.0
same,TRZAWR preemergence herbicidal rating,[16]; Rate 0.2500 kg/ha,5.0
same,ZEAMX preemergence herbicidal rating,[17]; Rate 0.0620 kg/ha,5.0
same,ZEAMX preemergence herbicidal rating,[17]; Rate 0.1250 kg/ha,5.0
same,ZEAMX preemergence herbicidal rating,[17]; Rate 0.2500 kg/ha,8.0
same,"herbicidal rating, CYPIR",[18]; rate 0.0080 kg/ha,3.0
same,"herbicidal rating, CYPIR",[18]; rate 0.0320 kg/ha,9.0
same,"herbicidal rating, CYPIR",[18]; rate 0.1250 kg/ha,9.0
same,"herbicidal rating, MOOVA",[19]; rate 0.0080 kg/ha,3.0
same,"herbicidal rating, MOOVA",[19]; rate 0.0320 kg/ha,9.0
